How the values were obtained:
MAB-002 = assay: Five freeze-thaw cycles of MAB-002 in formulations with different polyols, HMW species formation; assay type: physicochemical; conditions: MAB-002 5 mg/ml, 10 mM histidine pH 6.0, various polyol concentrations
Protocol: This experiment compared mannitol to other polyols with different maximum solubilities with respect to their abilities to induce aggregation during freeze-thaw. A monoclonal antibody referred to as MAB-002 was dialyzed into different liquid formulations containing mannitol, galactitol, or sorbitol, respectively, at various concentrations. Each formulation also contained 10 mM histidine, pH 6.0. The final concentration of MAB-002 in each of the liquid formulations was 5 mg/ml. Each formulation was then subject to five cycles of freeze-thaw, and monitored for HMW species formation. Changes in the percentage of HMW species was plotted against the polyol concentrations in FIG. 3.

[1] = test system: four monoclonal antibodies (mAb2, mAb3, mAb4, mAb5), a cytokine and a fusion protein; assay: Five freeze-thaw cycles of six proteins in 250 mM mannitol or sorbitol, HMW species formation; assay type: physicochemical; conditions: each protein 1 mg/ml, 10 mM histidine pH 6.0, 250 mM polyol
Protocol: Six different proteins including four different monoclonal antibodies (referred to as mAb2, mAb3, mAb4, and mAb5), a cytokine and a fusion protein were dialyzed into 10 mM histidine, pH 6.0, and 250 mM mannitol or sorbitol. The final concentration of each protein was 1 mg/ml. The formulations were then subject to five cycles of freeze-thaw as described above, and monitored for HMW species formation.

[2] = Sub ambient DSC scan of formulation during cooling and warming; assay type: physicochemical; conditions: formulation containing the polyol
[3] = cited from earlier work

Row | SMILES | Induction of aggregation (change in percentage of HMW species) (MAB-002) | Protein aggregation (HMW species formation) [1] | Crystallization during cooling and warming [2] | Maximum solubility [3] [mM]
1 | OC[C@@H](O)[C@@H](O)[C@H](O)[C@@H](O)CO [sorbitol] | did not induce aggregation significantly compared to mannitol | suppresses aggregation of multiple proteins | no crystallization occurred | 4500
2 | OC[C@@H](O)[C@@H](O)[C@H](O)[C@H](O)CO [mannitol] |  | considerably more protein aggregation |  | 1000
3 | OC[C@@H](O)[C@H](O)[C@H](O)[C@@H](O)CO [galactitol] | induced aggregation at low concentrations and at a faster rate compared to mannitol |  |  | 180

— patent US20080200655A1, “Protein Formulations Containing Sorbitol” (Wyeth, priority 2007, published 2008)
